# Data as given in patent US10239957B2, “Peptide containing conjugates for dual molecular delivery of oligonucleotides” (Merck Sharp & Dohme Corp., priority 2013, dated 2019).
# In the oligonucleotide strings, read from the 5' end, every base follows the letter of its sugar. An asterisk marks phosphorothioate; unmarked linkages are phosphodiester. Other units and linkages are bracketed, terminal groups are in braces. A string of capitals states the bases alone. Where no end group is shown, it is not given here. [ ]: non-standard residue; d: D form. {NH2C6-invAb} = cap: inverted abasic residue carrying an aminohexyl phosphate (attachment handle); [invAb] = inverted abasic unit; m = 2'-O-methyl; f = 2'-fluoro
# Assays:
# CTNNB1 [1] = assay: In vivo evaluation in mice: liver mRNA knockdown measurement; details: for In vivo mRNA knockdown: mice
# Protocol: (§1) Female CD-1 mice (Charles River) were injected in accordance with either a sequential dosing paradigm or a co-dosing paradigm. In the sequential dosing paradigm, the targeted siRNA (SCE) is dosed at t=0 and the targeted peptide is separately dosed up to 2 hr before the SCE (−2 hr) or up to 24 hr after the SCE (+24 hr). In the co-dosing paradigm, the SCE and peptides are co-formulated and dosed together in the same formulation as a single injection at t=0. The mice were dosed either by intravenous (i.v.) or subcutaneous (s.c.) injection of SCE and peptide. For the i.v. doses, the compounds were injected into the tail vein of the mice. For the s.c. doses, the compounds were injected in the subcutaneous space on the back of the mouse between the shoulder blades. At the indicated harvest times (measured from t=0 when the siRNA was dosed, regardless of when the peptide was dosed), the animals were sacrificed and 3 mm liver punches were collected, preserved in RNAlater (Ambion), and stored at 4° C. Separate 5 mm liver punches were collected, placed in 96-well plates, frozen on dry ice, and stored at −80° C. until use.
# The 3 mm liver punches were removed from RNAlater and homogenized in Trizol (Invitrogen) using a bead mill tissue lyser (Qiagen); disruption was performed for two 5-minute cycles at 30 Hz. RNA extraction was performed using 1-bromo-2-chloropropane (Acros Organics) and total RNA was isolated from the aqueous phase using the MagMax RNA isolation method (Ambion). […] TaqMan qPCR analysis was performed with an ABI 7900 Real-Time PCR System using TaqMan Fast Advanced Master Mix (Applied Biosystems). All TaqMan probes and primers for CTNNB1 and PPIB (housekeeping gene) were purchased from Applied Biosystems as pre-validated gene expression assays. Results are calculated by the comparative Ct method, where the difference between the CTNNB1 Ct value and the PPIB Ct value (ΔCt) is calculated and then further normalized relative to the PBS control by taking a second difference (ΔΔCt), as described previously (1).
# [2] = Lethality observed on in vivo dosing in mice; parameters: key: *: lethal at this dose
# Protocol: as §1
# CTNNB1 [3] = assay: In vitro DMD assay: mRNA silencing enhancement by peptide conjugates after siRNA-IV treatment; format: cell-based; details: primary mouse hepatocytes, siRNA-IV 125 nM baseline
# Procedure, shortened: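 RT-qPCR read-out, PPIB-normalized (dddCt), gave silencing enhancement versus 125 nM siRNA-IV alone and untreated cells. Beforehand, cultured primary mouse hepatocytes received siRNA-IV for 1 h, then graded peptide-conjugate doses for ~16 h, followed by washout and a further 24 h incubation.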
# [4] = siRNA metabolic stability (order stated for FIG. 6); details: order siRNA-I>siRNA-V>siRNA-VI
# RISC = target: T1, RISC (Mus musculus, UniProt Q8CJG0); assay: Quantitation of siRNA bound to RISC (RISC loading) in liver; format: in vivo, mice; details: siRNA with vinyl phosphonate vs siRNA-I
# T1 construct: from tissue; host or cells: liver of female CD-1 mice (5 mm liver punches)
# Protocol: as §1, with “use. […]” for “use.”
# [5] = TGN-L-siRNA-III 0.5 mg/kg IV, peptide 2 mg/kg IV 15 min after siRNA
# [6] = TGN-L-siRNA-III 0.5 mg/kg IV, peptide 10 mg/kg IV 15 min after siRNA
# [7] = TGN-L-siRNA-III 0.5 mg/kg IV, peptide 25 mg/kg IV 15 min after siRNA
# [8] = TGN-L-siRNA-III 0.25 mg/kg IV, peptide 50 mg/kg IV 15 min after siRNA
# T1 sequence (Q8CJG0 whole entry): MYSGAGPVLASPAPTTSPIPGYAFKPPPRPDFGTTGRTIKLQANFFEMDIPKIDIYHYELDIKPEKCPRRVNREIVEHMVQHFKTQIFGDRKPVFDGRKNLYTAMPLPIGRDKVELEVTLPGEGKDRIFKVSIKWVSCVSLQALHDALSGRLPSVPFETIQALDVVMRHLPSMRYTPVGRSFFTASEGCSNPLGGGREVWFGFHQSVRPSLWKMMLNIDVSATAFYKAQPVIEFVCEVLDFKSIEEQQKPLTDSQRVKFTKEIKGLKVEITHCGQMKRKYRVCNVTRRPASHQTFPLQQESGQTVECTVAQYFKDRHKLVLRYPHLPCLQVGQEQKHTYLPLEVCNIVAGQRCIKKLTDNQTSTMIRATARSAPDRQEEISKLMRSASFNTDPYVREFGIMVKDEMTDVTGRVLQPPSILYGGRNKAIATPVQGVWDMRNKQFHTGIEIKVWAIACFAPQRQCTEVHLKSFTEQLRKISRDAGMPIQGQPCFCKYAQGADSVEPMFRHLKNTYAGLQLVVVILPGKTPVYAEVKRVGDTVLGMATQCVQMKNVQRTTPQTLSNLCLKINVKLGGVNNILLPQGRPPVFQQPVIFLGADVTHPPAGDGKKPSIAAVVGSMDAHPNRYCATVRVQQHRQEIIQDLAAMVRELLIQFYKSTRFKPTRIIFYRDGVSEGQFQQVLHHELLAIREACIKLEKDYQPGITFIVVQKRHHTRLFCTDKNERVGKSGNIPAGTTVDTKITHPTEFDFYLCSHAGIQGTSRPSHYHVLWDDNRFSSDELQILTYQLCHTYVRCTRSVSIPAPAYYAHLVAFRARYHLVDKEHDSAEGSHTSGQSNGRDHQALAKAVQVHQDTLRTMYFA
substance,measurement,setting,value
TGN-S-S-SEQ ID NO: 1248 (D) (C[dF][dL][dE][dE][dL][dW][dE][dL][dL][dE][dH][dL][dL]; not fully specified (residue 1); listed as Homo sapiens),In vivo mRNA knockdown,CTNNB1 [1]; [5],42%
same,In vivo mRNA knockdown,CTNNB1 [1]; [6],74%
same,In vivo mRNA knockdown,CTNNB1 [1]; [7],58%
same,Lethality mark at targeted peptide dose,[2]; [7],25*
TGN-S-S-SEQ ID NO: 1419 (D) (C[dF][dL][dE][dE][dL][dW]G[dL][dL][dE][dH][dL][dL]; not fully specified (residue 1); listed as Homo sapiens),In vivo mRNA knockdown,CTNNB1 [1]; [5],43%
same,In vivo mRNA knockdown,CTNNB1 [1]; [6],78%
same,In vivo mRNA knockdown,CTNNB1 [1]; [7],76%
same,Lethality mark at targeted peptide dose,[2]; [7],25*
TGN-S-S-SEQ ID NO: 1654 (D) (CG[dL][dL][dE][dE][dI][dE][dE][dL][dL][dE][dE]G[dL][dE][dN][dL][dI][dD][dW]G[dN][dS]; not fully specified (residue 1); listed as Homo sapiens),In vitro dddCt (vs. baseline SCE dose),CTNNB1 [3]; Targeted peptide dose 25 nM,−0.39
same,In vitro dddCt (vs. baseline SCE dose),CTNNB1 [3]; Targeted peptide dose 125 nM,−1.05
same,In vitro dddCt (vs. baseline SCE dose),CTNNB1 [3]; Targeted peptide dose 3125 nM,−1.48
same,In vitro dddCt (vs. baseline SCE dose),CTNNB1 [3]; Targeted peptide dose 15625 nM,−1.61
same,In vivo mRNA knockdown,"CTNNB1 [1]; TGN-L-siRNA-III 0.25 mg/kg IV, peptide 2 mg/kg IV 15 min after siRNA",51%
same,In vivo mRNA knockdown,"CTNNB1 [1]; TGN-L-siRNA-III 0.25 mg/kg IV, peptide 10 mg/kg IV 15 min after siRNA",72%
same,In vivo mRNA knockdown,CTNNB1 [1]; [8],65%
same,Lethality mark at targeted peptide dose,[2]; [8],50*
TGN-S-S-SEQ ID NO: 1746 (D): TGN-S-S-peptide; peptide CEALFGKINAIFIGKL ([dC][dE][dA][dL][dF]G[dK][dI][dN][dA][dI][dF][dI]G[dK][dL]; not fully specified (residue 1); also: disulfide to TGN peptide via Cys1; listed as Homo sapiens),In vitro dddCt (vs. baseline SCE dose),CTNNB1 [3]; Targeted peptide dose 8 nM,−0.01
same,In vitro dddCt (vs. baseline SCE dose),CTNNB1 [3]; Targeted peptide dose 40 nM,−0.09
same,In vitro dddCt (vs. baseline SCE dose),CTNNB1 [3]; Targeted peptide dose 200 nM,−0.07
same,In vitro dddCt (vs. baseline SCE dose),CTNNB1 [3]; Targeted peptide dose 1000 nM,−0.09
same,In vitro dddCt (vs. baseline SCE dose),CTNNB1 [3]; Targeted peptide dose 5000 nM,−0.04
same,In vivo mRNA knockdown,CTNNB1 [1]; [5],31%
same,In vivo mRNA knockdown,CTNNB1 [1]; [6],25%
"siRNA-I: CTNNB1 siRNA; passenger SEQ ID NO 1803, guide SEQ ID NO 1804 (sense CUGUUGGAUUGAUUCGAAAUU; guide UUUCGAAUCAAUCCAACAGUU; (1)..(1) aminohexyl phosphate inverted abasic cap; (1)..(2) 2′-O-methyl; (3)..(3) 2′-deoxy-2′-fluoro; (4)..(5) 2′-O-methyl; (6)..(8) 2′-deoxy-2′-fluoro; (9)..(10) 2′-O-methyl; (11)..(12) 2′-deoxy-2′-fluoro; (13)..(15) 2′-O-methyl; (16)..(19) 2′-deoxy-2′-fluoro; (20)..(21) 2′-O-methyl; (20)..(21) phosphorothioate internucleotide linkage; (21)..(21) inverted abasic cap; (1)..(1) 2′-O-methyl; (1)..(2) phosphorothioate internucleotide linkage; (2)..(2) 2′-deoxy-2′-fluoro; (2)..(3) phosphorothioate internucleotide linkage; (3)..(3) 2′-O-methyl; (3)..(4) phosphorothioate internucleotide linkage)",siRNA (metabolic) stability,[4],highly stable
same,"Effect of timing of peptide dose on activity, FIG. 6",CTNNB1 [1]; peptide within 2 hr before up to 24 hr after siRNA dose,does not significantly change the activity
"siRNA-III: CTNNB1 siRNA; passenger SEQ ID NO 1803, guide SEQ ID NO 1806 (vinylPmoeT) (sense CUGUUGGAUUGAUUCGAAAUU; guide TUUCGAAUCAAUCCAACAGUU; vinylphosphonate MOE T; (1)..(1) aminohexyl phosphate inverted abasic cap; (1)..(2) 2′-O-methyl; (3)..(3) 2′-deoxy-2′-fluoro; (4)..(5) 2′-O-methyl; (6)..(8) 2′-deoxy-2′-fluoro; (9)..(10) 2′-O-methyl; (11)..(12) 2′-deoxy-2′-fluoro; (13)..(15) 2′-O-methyl; (16)..(19) 2′-deoxy-2′-fluoro; (20)..(21) 2′-O-methyl; (20)..(21) phosphorothioate internucleotide linkage; (21)..(21) inverted abasic cap; (1)..(1) terminal vinyl phosphate; (1)..(1) 2′-methoxyethoxy; (2)..(21) ribonucleotide unmodified or modified as described for this sequence; (2)..(2) 2′-deoxy-2′-fluoro; (3)..(3) 2′-O-methyl; (4)..(4) …)",Time course of RISC loading (FIG. 5): rate of RISC loading,RISC,faster RISC loading
"siRNA-V: CTNNB1 siRNA; passenger SEQ ID NO 1803, guide SEQ ID NO 1808 (sense {NH2C6-invAb}-mCmUfGmUmUfGfGfAmUmUfGfAmUmUmCfGfAfAfAmU*mU[invAb]; guide mUfUmUfCmGfAmAfUmCfAmAfUmCfCmAfAmCfAmGmU*mU)",siRNA (metabolic) stability,[4],moderately stable
same,"Activity, FIG. 6",CTNNB1 [1]; longer separation times (4-24 hr post-siRNA dose),background levels
same,"Activity (KD), FIG. 6",CTNNB1 [1]; peptide dose times within 2 hr (before or after) the siRNA,~25%
"siRNA-VI: CTNNB1 siRNA; passenger SEQ ID NO 1803, guide SEQ ID NO 1809 (sense {NH2C6-invAb}-mCmUfGmUmUfGfGfAmUmUfGfAmUmUmCfGfAfAfAmU*mU[invAb]; guide fUfUfUmCfGfAfAmUmCfAfAmUmCfCfAfAmCfAfGmU*mU)",siRNA (metabolic) stability,[4],more unstable
same,"Activity, FIG. 6","CTNNB1 [1]; DMD with peptide, more unstable siRNA",background levels
